Results from patent US12478619B2, “Method of treatment with milsaperidone” (Vanda Pharmaceuticals Inc., priority 2023, dated 2025).

Columns and labels:
[1] = Study 3201: serum urate in patients with acute manic episodes associated with bipolar I disorder, iloperidone vs placebo, 4 weeks; format: in vivo, human; settings: for Serum urate LS Mean Change (SE) from baseline: iloperidone 24 mg/day (12 mg bid) oral, ANCOVA
Experimental: A multi-center, randomized, double-blind, placebo-controlled study (“Study 3201”) is performed to evaluate the safety and efficacy of iloperidone for four (4) weeks in the treatment of patients with acute manic episodes associated with bipolar I disorder. Patients in the study are randomized to orally receive either iloperidone at a dose of 24 mg/day given in a divided dose as 12 mg twice daily (bid), or matched placebo.
These increases are illustrated in FIG. 3 using solid data points.
To test the hypothesis of altered urate serum levels in association with variants in the SLC2A9 gene, whole genome sequencing is conducted from blood samples, genotype status is obtained through standard data analysis, and linear models for SLC2A9 variants are performed on urate concentration in samples collected at baseline (corrected for PCs, age, sex) and samples collected at the end of the study (EOS).

[2] = human, in vivo
Experimental: A study is performed to evaluate the efficacy and safety of iloperidone compared with placebo and active control (ziprasidone) in subjects with acute schizophrenia (“Study 3101”). Patients are randomized to receive one of iloperidone at a dose of 24 mg/day given in a divided dose as 12 mg twice daily (bid), active comparator ziprasidone, or placebo. […] Uric acid results are converted to SI units using the conversion 1 mg/dL=59.5 μmol/L.
Results are provided in Table 7 below, including an increase of 28.0 μmol/L for iloperidone compared to a decrease of 4.2 μmol/L in placebo groups.
Patient genotypes are obtained via a commercial 500 k SNP Gene Chip Human Mapping Array. To test the hypothesis of altered urate serum levels in association with variants in SLC2A9, Linear models for SLC2A9 variants are performed on urate at baseline levels (corrected for PCs, age, sex) followed by samples collected at end of study (EOS).

In the case of `COc1cc(C(C)=O)ccc1OCCCN1CCC(c2noc3cc(F)ccc23)CC1` [Iloperidone, 1-[4-[3-[4-(6-flouro-1,2-benzisoxazol-3-yl)-1-piperidinyl]propoxy]-3-methoxyphenyl]ethanone], the “Increase of serum urate levels” value ([1]; 24 mg/day given as 12 mg bid, value in mg/dL) is reported as ~0.457 mg/dL, the “Serum urate LS Mean Difference (95% CI), iloperidone vs placebo” value (“Serum urate LS Mean Difference (95% CI)” for short) ([1]; Day 7, 24 mg/day) is reported as 1.3 (−9.29, 11.88) μmol/L and the “Serum urate LS Mean Change (SE) from baseline” value (“Serum urate LS Mean Change (SE)” for short) ([1]; Day 7) is reported as −2.7 (−4.07), 199 μmol/L. For the same compound, the “Serum urate LS Mean Difference (95% CI)” value ([1]; Day 14, 24 mg/day) was 15.3 (4.50, 26.15) μmol/L, the “Serum urate LS Mean Change (SE)” value ([1]; Day 14) was 12.6 (−4.28), 173 μmol/L and the “Serum urate LS Mean Difference (95% CI)” value ([1]; Day 21, 24 mg/day) was 21.0 (8.91, 33.18) μmol/L. For the same compound, the “Serum urate LS Mean Change (SE)” value ([1]; Day 21) was 19.1 (−5.24), 157 μmol/L, the “Serum urate LS Mean Change (SE)” value ([1]; Day 28 (endpoint)) was 27.2 (−4.93), 142 μmol/L and the “Serum urate LS Mean Change (SE)” value ([1]; Day 28 (endpoint), listed as FANAPT® iloperidone) was “approximately 27.2 μmol/L”. For the same compound, the “Serum urate LS Mean Change (SE)” value ([1]; Day 28 (endpoint), listed as iloperidone) was 27.2 µmol/L, the “Increase in serum urate from baseline compared to placebo” value ([1]; Day 28, 24 mg/day) was 4 fold and the “Serum urate LS Mean Difference (95% CI)” value ([1]; Day 28, 24 mg/day) was 27.1 (14.94, 39.20) μmol/L. For the same compound, the “Change in serum urate from baseline (mean, observed cases)” value ([1]; Day 28, 24 mg/day, FIG. 3) was 33.4 µmol/L, the “LS Mean Change (SE) in Serum Urate” value ([1]; Day 28, genotype AA) was 25.74 (6.53), 73 μmol/L and the “Serum urate LS Mean Difference (95% CI)” value ([1]; Day 28, genotype AA) was 31.91 (14.82, 49) μmol/L. For the same compound, the “LS Mean Change (SE) in Serum Urate” value ([1]; Day 28, genotype AA, sex F) was 25.48 (9.16), 34 μmol/L, the “Serum urate LS Mean Difference (95% CI)” value ([1]; Day 28, genotype AA, sex F) was 27.85 (2.93, 52.76) μmol/L and the “LS Mean Change (SE) in Serum Urate” value ([1]; Day 28, genotype AA, sex M) was 28.89 (8.7), 39 μmol/L. For the same compound, the “Serum urate LS Mean Difference (95% CI)” value ([1]; Day 28, genotype AA, sex M) was 35.52 (12.82, 58.22) μmol/L, the “LS Mean Change (SE) in Serum Urate” value ([1]; Day 28, genotype AG) was 24.62 (7.61), 51 μmol/L and the “Serum urate LS Mean Difference (95% CI)” value ([1]; Day 28, genotype AG) was 14.84 (−4.18, 33.86) μmol/L. The “LS Mean Change (SE) in Serum Urate” value ([1]; Day 28, genotype AG, sex F) was 0.06 (10.14), 27 μmol/L, the “Serum urate LS Mean Difference (95% CI)” value ([1]; Day 28, genotype AG, sex F) was −7.9 (−34.82, 19.03) μmol/L and the “LS Mean Change (SE) in Serum Urate” value ([1]; Day 28, genotype AG, sex M) was 53.41 (10.84), 24 μmol/L. The “Serum urate LS Mean Difference (95% CI)” value ([1]; Day 28, genotype AG, sex M) was 40.79 (14.61, 66.96) μmol/L, the “LS Mean Change (SE) in Serum Urate” value ([1]; Day 28, genotype GG) was 40.09 (12.36), 18 μmol/L and the “Serum urate LS Mean Difference (95% CI)” value ([1]; Day 28, genotype GG) was 56.95 (18.91, 94.99) μmol/L. For the same compound, the “LS Mean Change (SE) in Serum Urate” value ([1]; Day 28, genotype GG, sex F) was −0.19 (19.49), 7 μmol/L, the “Serum urate LS Mean Difference (95% CI)” value ([1]; Day 28, genotype GG, sex F) was 3.08 (−50.97, 57.13) μmol/L and the “LS Mean Change (SE) in Serum Urate” value ([1]; Day 28, genotype GG, sex M) was 65.61 (15.42), 11 μmol/L. The “Serum urate LS Mean Difference (95% CI)” value ([1]; Day 28, genotype GG, sex M) was 102.96 (48.93, 156.99) μmol/L, the “Mean Change (SE) from Baseline in Serum Urate, Observed Cases” value (shortened to “Mean Change (SE) … Observed Cases”) ([1]; Day 28, rs7442295 genotype AA, 24 mg/day) was 30.5 (50.99), 73 μmol/L and the “Mean Change (SE) … Observed Cases” value ([1]; Day 28, rs7442295 genotype AG, 24 mg/day) was 31.9 (59.39), 51 μmol/L. For the same compound, the “Mean Change (SE) … Observed Cases” value ([1]; Day 28, rs7442295 genotype GG, 24 mg/day) was 49.1 (60.56), 18 μmol/L, the “LS Mean Change (SE) in Serum Urate” value ([1]; EOS (last observation carried forward), genotype AA, sex F) was 14.93 (8.59), 41 μmol/L and the “LS Mean Change (SE) in Serum Urate” value ([1]; EOS (last observation carried forward), genotype AA, sex M) was 20.63 (7.29), 60 μmol/L. The “LS Mean Change (SE) in Serum Urate” value ([1]; EOS (last observation carried forward), genotype AG, sex F) was −2.27 (8.75), 39 μmol/L, the “LS Mean Change (SE) in Serum Urate” value ([1]; EOS (last observation carried forward), genotype AG, sex M) was 32.96 (8.74), 41 μmol/L and the “LS Mean Change (SE) in Serum Urate” value ([1]; EOS (last observation carried forward), genotype GG, sex F) was −6.03 (20.3), 7 μmol/L. For the same compound, the “LS Mean Change (SE) in Serum Urate” value ([1]; EOS (last observation carried forward), genotype GG, sex M) was 67.03 (15.38), 12 μmol/L, the “Percentage of patients with serum urate above ULN” value (shortened to “Percentage of patients”) ([1]; EOS, Female (ULN 394 μmol/l), rs7442295 AA) was 15.0% and the “Percentage of patients” value ([1]; EOS, Female (ULN 394 μmol/l), rs7442295 AG) was 8.1%. For the same compound, the “Percentage of patients” value ([1]; EOS, Female (ULN 394 μmol/l), rs7442295 GG) was 0.0%, the “Percentage of patients” value ([1]; EOS, Male (ULN 453 μmol/l), rs7442295 AA) was 12.3% and the “Percentage of patients” value ([1]; EOS, Male (ULN 453 μmol/l), rs7442295 AG) was 13.5%. The “Percentage of patients” value ([1]; EOS, Male (ULN 453 μmol/l), rs7442295 GG) was 33.3%, the “Percentage of patients” value ([1]; EOS, Male (ULN 453 μmol/l), rs7442295 GG, listed as iloperidone) was “about 33.3%” and the “LS Mean Change (SE) in Serum Urate” value ([1]; EOS, genotype AA) was 16.73 (5.66), 101 μmol/L. For the same compound, the “Serum urate LS Mean Difference (95% CI)” value ([1]; EOS, genotype AA) was 18.23 (3.19, 33.28) μmol/L, the “Serum urate LS Mean Difference (95% CI)” value ([1]; EOS, genotype AA, sex F) was 15.97 (−6.71, 38.64) μmol/L and the “Serum urate LS Mean Difference (95% CI)” value ([1]; EOS, genotype AA, sex M) was 18.99 (−0.89, 38.86) μmol/L. For the same compound, the “LS Mean Change (SE) in Serum Urate” value ([1]; EOS, genotype AG) was 15.05 (6.29), 80 μmol/L, the “Serum urate LS Mean Difference (95% CI)” value ([1]; EOS, genotype AG) was 8.61 (−8.27, 25.48) μmol/L and the “Serum urate LS Mean Difference (95% CI)” value ([1]; EOS, genotype AG, sex F) was −1.4 (−25.85, 23.06) μmol/L. For the same compound, the “Serum urate LS Mean Difference (95% CI)” value ([1]; EOS, genotype AG, sex M) was 19.58 (−2.91, 42.08) μmol/L, the “LS Mean Change (SE) in Serum Urate” value ([1]; EOS, genotype GG) was 40.4 (12.41), 19 μmol/L and the “Serum urate LS Mean Difference (95% CI)” value ([1]; EOS, genotype GG) was 55.4 (18.68, 92.13) μmol/L. For the same compound, the “Serum urate LS Mean Difference (95% CI)” value ([1]; EOS, genotype GG, sex F) was 4.54 (−50.43, 59.52) μmol/L, the “Serum urate LS Mean Difference (95% CI)” value ([1]; EOS, genotype GG, sex M) was 88.45 (38.7, 138.21) μmol/L and the “Increases in serum urate levels in iloperidone-treated patients homozygous for rs7442295 (G)” value ([1]; GG genotype compared with other iloperidone-treated patients) was “nearly twice as large”. The “Change in SUC relative to baseline at EOS, rs7442295-G/G vs A/G or A/A” value ([1]; iloperidone-treated patients, FIG. 9, panova<0.0001) was “significantly greater change from baseline” and the “Increase in percentage of male rs7442295-G/G individuals with high urate levels, baseline to end of study” value ([1]; male, GG, from about 8.3% at baseline) was “approximately 4 fold”.

With `O=C1Cc2cc(CCN3CCN(c4nsc5ccccc45)CC3)c(Cl)cc2N1` [ziprasidone] the “Serum urate LS mean change from baseline to endpoint, ziprasidone treatment arm” value [2] was 13.1 µmol/L.
